From patent US20170360947A1, “POLYMER PARTICLES AND BIOMATERIALS COMPRISING THE SAME” (UNIVERSITE DE BORDEAUX, priority 2014, published 2017)
≈ marks a conversion by molar mass, not a printed value.

What was measured:
MRSA BCB8 = experiment: MIC determination in Mueller-Hinton broth (absorbance at 600 nm); assay type: cell-based, S. aureus
Experimental: From a 24 h bacterial culture, MRSA BCB8 were suspended in Mueller-Hinton broth to obtain a 0.5 McF suspension, which was diluted to a final concentration of 1.10^6 CFU·ml^−1.
Then twofold serial dilutions of chemicals were prepared (from 256 μg·ml^−1 to 0.06 μg·ml^−1) and 100 μl of MRSA BCB8 suspension were incubated with 200 μl of chemical containing solutions for 24 h at 37° C.
After this time, suspension absorbances were measured at 600 nm. MICs were determined as the minimal concentration for which the lowest absorbance is observed.

[1] = tested on: MRSA strain obtained from blood cultures; experiment: Gentamicin susceptibility of the MRSA strain studied in vivo; assay type: cell-based, S. aureus
Experimental: Strain studied: an MRSA strain obtained from blood cultures (gentamicin MIC<0.5 μg/mL). Assessment of the animal model was realized with 10^3 CFU/mL inoculum.

CN[C@H](CC(C)C)C(=O)N[C@H]1C(=O)N[C@@H](CC(N)=O)C(=O)N[C@H]2C(=O)N[C@H]3C(=O)N[C@H](C(=O)N[C@H](C(=O)O)c4cc(O)cc(O)c4-c4cc3ccc4O)[C@H](O)c3ccc(c(Cl)c3)Oc3cc2cc(c3O[C@@H]2O[C@H](CO)[C@@H](O)[C@H](O)[C@H]2O[C@H]2C[C@](C)(N)[C@H](O)[C@H](C)O2)Oc2ccc(cc2Cl)[C@H]1O [Vancomycin]
MIC (MRSA BCB8; Staphylococcus aureus, MRSA, 24 h): 0.6 µg/mL (≈ 0.414 µM)

gentamicin
gentamicin MIC [1]: < 0.5 µg/mL

α-Norbornenyl-ω-Vancomycin Poly(Ethylene Oxide) [macro Vanco]
MIC (MRSA BCB8; MRSA BCB8, 24 h at 37° C., lowest absorbance at 600 nm): 1.3 µg/mL
